Data taken from patent US10350203B2, “Multidrug infusion for pain control” (priority 2014, dated 2019).

Tests used:
[1] = test system: pain due to severe spastic right hemiparesis post stroke; conditions: for pain relief: human, in vivo, iv
[2] = intrathecal, combined with opioids, up to more than 30 mg/day; cited from earlier work
[3] = test system: spinal tissue or meninges; conditions: dog, in vivo, 1 mg/kg; cited from earlier work
[4] = test system: hyperalgesia and allodynia; conditions: rat, in vivo; cited from earlier work
pain = conditions: in vivo; cited from earlier work
spinal cord = conditions: in vivo; cited from earlier work
gliosis = conditions: rat, in vivo; cited from earlier work

## NCC(CC(=O)O)c1ccc(Cl)cc1 (stereo not shown) [Baclofen]
[1]
  pain relief: no relief

## CCCCN1CCCCC1C(=O)Nc1c(C)cccc1C (stereo not shown) [bupivacaine]
[2]
  bladder dysfunction or muscle weakness: did not cause bladder dysfunction or muscle weakness

## CNC1(c2ccccc2Cl)CCCCC1=O (stereo not shown) [ketamine]
[1]
  pain relief: did not provide any relief
[1]; intravenous infusions
  tolerability: well tolerated
[3]
  histological alterations of spinal tissue or meninges: no histological alterations

## C=CCN1CC[C@]23c4c5ccc(O)c4O[C@H]2C(=O)CC[C@@]3(O)[C@H]1C5 [naloxone]
[4]
  effect on antihyperalgesia and antiallodynia effects of morphine: enhanced
pain
  effect on morphine analgesic effect: dramatically enhanced
  side effects: without apparent side effects
Spinal cord
  signs of spinal cord toxicity: have not demonstrated signs of spinal cord toxicity

## O=C1CC[C@@]2(O)[C@H]3Cc4ccc(O)c5c4[C@@]2(CCN3CC2CC2)[C@H]1O5 [naltrexone]
gliosis
  gliosis: attenuates gliosis
